# Earlier results as cited in patent publication US20100280071A1, “BENZIMIDAZOLES WHICH HAVE ACTIVITY AT M1 RECEPTOR AND THEIR USES IN MEDICINE” (priority 2006, published 2010).
# What was measured:
# c-fos expression = conditions: prefrontal cortex, nucleus accumbens, striatum; rats
# [1] = in vivo
# [2] = tested on: unilateral 6-OH-DA lesioned rats
# [3] = tested on: A10 and A9 dopamine cells; conditions: A10 versus A9 cells
structure (smiles),measurement,setting,value
CCCCCCOc1nsnc1C1=CCCN(C)C1 [xanomeline],c-fos expression,c-fos expression,"induces c-fos expression in prefrontal cortex and nucleus accumbens, but not in striatum"
same,effect on amphetamine induced locomotion,rats,reverses
same,effect on apomorphine induced climbing,mice,reverses
same,conditioned avoidance,[1],inhibit
same,"psychotic symptoms such as suspiciousness, hallucinations and delusions",Alzheimer's patients; Alzheimer's patients,reduce psychotic symptoms
same,side effects,Alzheimer's patients; attributed to relatively non-selective nature of the compound,dose-limiting peripheral cholinergic side effects
same,EPS liability,monkeys,without EPS liability
same,effect on amphetamine-induced motor unrest,monkeys,reverses
same,effect on dopamine agonist driven turning,[2],reverses
same,dopamine cell firing,[3],"inhibit A10, but not A9"
